Experimental data as given in patent US20260083704A1, “LXR MODULATORS WITH BICYCLIC CORE MOIETY FOR TREATING DYSLIPIDEMIAS” (OrsoBio, Inc., priority 2022, published 2026).
Entries after “also recorded” stand apart in the source; their conditions may differ.

Legend:
[1] = Phase 1 study, SAD cohorts: plasma pharmacokinetics; type: in vivo, human; conditions: for AUC(0-inf) / Cmax / Tmax / half-life: both sexes, human, oral, plasma
Experimental: (§1) A double-blind, placebo-controlled, single- and multiple-ascending dose FIH Phase 1 study to evaluate the safety, tolerability, PK, and PD of Compound 21/3 in healthy adult subjects was performed. A total of up to 150 subjects were enrolled, including 100 subjects in Parts A and B, and up to 50 subjects in adaptive cohorts in Part C. Within each cohort, 10 subjects were randomized, including 8 subjects randomized to Compound 21/3 and 2 subjects to PTM (placebo-to-match). In single-dose cohorts in Parts A and in any Part C cohort evaluating a higher total daily dose than previously evaluated, safety and tolerability data collected through Day 2 from two sentinel subjects, one randomized to Compound 21/3 and one to PTM, were evaluated prior to dosing of the remaining subjects in each cohort.
(§2) Intensive PK sampling over 72 h postdose on Day 1 (SAD and MAD) and Day 14 (MAD) was performed. Compound 21/3 plasma concentrations were determined using validated liquid chromatography-tandem mass spectrometry assay. PK parameters were estimated via noncompartmental methods using Pheonix® WinNonlin® 6.2.1 and 8.3.4 (Certara, LP, Princeton, NJ).
Part A evaluated the safety, tolerability, PK, and PD of single-ascending doses of oral Compound 21/3 or placebo under fed conditions. Part A proceeded in up to 5 dose-escalation cohorts and governed by a review of safety, tolerability, and any available and relevant PK and/or PD data, and study-specific stopping criteria.

[2] = Phase 1 study, MAD cohorts: plasma pharmacokinetics; type: in vivo, human; conditions: healthy subjects; for AUC / Cmax / Tmax / half-life: both sexes, human, plasma, oral
Experimental: as §1, §2
Part B evaluated the safety, tolerability, PK, and PD of multiple-ascending doses of oral Compound 21/3 or placebo under fed conditions. Part B will proceed in up to 5 dose-escalation cohorts and will be governed by a review of safety, tolerability, and any available and relevant PK and/or PD data, and study-specific stopping criteria.

ABCA1/ABCG1 in PBMCs = assay: Phase 1 study, MAD cohorts: expression of ABCA1/ABCG1 in PBMCs (peripheral RCT); type: in vivo, human; conditions: healthy subjects, predose and 4 h postdose on Day 14
Experimental: Lipid parameters, including apolipoprotein B (apoB), were evaluated by NMR LipoProfile® (Labcorp, Burlington, NC. Plasma ApoC3 and ANGPTL3 were evaluated by ELISA (360biolabs, Melbourne, Australia). Peripheral RCT (reverse cholesterol transport) were evaluated by assessing changes in expression of ABCA1/ABCG1 in PBMCs, predose and 4 hours postdose on Days 1 and 14 (Gnomix, Bedford Park, Australia).
In FIG. 14A to 14C, ApoC3 and ANGPTL3 measured 12 h postdose. RCT assessed predose and 4 h postdose on Day 14.

DIO mice = assay: Diet-induced obese (DIO) mouse model; type: in vivo
From the text: Data are shown as mean±SD. N=5-8 animals per group. *p≤0.05, **p≤0.01, ***p≤0.001, ****p≤0.0001 vs. vehicle, unless otherwise indicated; ^#p≤0.05 pioglitazone vs. vehicle Kruskal-Wallis (non-parametric One-Way ANOVA) test with Dunn's multiple comparisons test (FIG. 4A, FIG. 4B, FIG. 4D), repeated measures two-way ANOVA with Dunnett's multiple comparisons test (FIG. 4C), two-way ANOVA with Sidak's multiple comparisons test (FIG. 4E), Mann-Whitney test (FIG. 4F-G).
Data are shown as mean±SD. N=5-8 animals per group. *p≤0.05, **p≤0.01, ***p≤0.001, ****p≤0.0001 vs. vehicle, unless otherwise indicated; ^#p≤0.05 pioglitazone vs. vehicle repeated measures two-way ANOVA with Dunnett's multiple comparisons test (FIG. 5A, FIG. 5C, FIG. 5D), Kruskal-Wallis (non-parametric one-way ANOVA) test with Dunn's multiple comparisons test (FIG. 5B, FIG. 5E).
The efficacy of Compound 21/3 was evaluated in three dysmetabolic rodent models including DIO mice, HFD-fed ZDF rats, and HFD-fed SD rats (FIG. 4 and FIG. 5). Briefly, DIO mice were fed a HFD (60% kcal from fat) for 14 weeks and treated with Compound 21/3 (0.3 and 1 mg/kg once daily by oral gavage) for three weeks, while ZDF and SD rats were fed HFD for two weeks prior to treatment with Compound 21/3 (0.1 and 1 mg/kg once daily by oral gavage) for two or three weeks, respectively.

SMILES: N#Cc1cccc(C#N)c1-c1c(-c2cccc(-c3ccc(C(=O)NCC(=O)O)cc3Cl)c2)n(S(=O)(=O)c2ccc(C(F)F)cc2)c2ccc(F)cc12 [Compound 21/3]
- AUC(0-inf) ([1]; Day 1, 0.5 mg, mean): 1.2 ng·h/mL
- Cmax ([1]; Day 1, 0.5 mg, mean, read-out: Cmax): 0.37 ng/mL
- Tmax ([1]; Day 1, 0.5 mg, median): 3.5 h
- half-life ([1]; Day 1, 0.5 mg, median): 126 min
- AUC(0-inf) ([1]; Day 1, 2 mg, mean): 8.5 ng·h/mL
- Cmax ([1]; Day 1, 2 mg, mean, read-out: Cmax): 0.54 ng/mL
- Tmax ([1]; Day 1, 2 mg, median): 3.75 h
- half-life ([1]; Day 1, 2 mg, median): 298 min
- AUC(0-inf) ([1]; Day 1, 6 mg, mean): 10 ng·h/mL
- Cmax ([1]; Day 1, 6 mg, mean, read-out: Cmax): 3.33 ng/mL
- Tmax ([1]; Day 1, 6 mg, median): 4 h
- half-life ([1]; Day 1, 6 mg, median): 82.2 min
- AUC(0-inf) ([1]; Day 1, 12 mg, mean): 17.1 ng·h/mL
- Cmax ([1]; Day 1, 12 mg, mean, read-out: Cmax): 4.69 ng/mL
- Tmax ([1]; Day 1, 12 mg, median): 3 h
- half-life ([1]; Day 1, 12 mg, median): 121 min
- AUC(0-inf) ([1]; Day 1, 20 mg, mean): 20.6 ng·h/mL
- Cmax ([1]; Day 1, 20 mg, mean, read-out: Cmax): 6.79 ng/mL
- Tmax ([1]; Day 1, 20 mg, median): 2.5 h
- half-life ([1]; Day 1, 20 mg, median): 142 min
- half-life ([1]; healthy subjects): 120 to 180 min
- Tmax ([1]; healthy subjects, postdose): 3 to 4 h
- Cmax ([1]; healthy subjects, read-out: maximal plasma concentrations (Cmax)): < 7 ng/mL
- dose proportionality of plasma exposure ([1]; healthy subjects): less than dose-proportional increases
- AUC ([2]; 2 mg, MAD Day 14, 2 mg, fed, mean): 2.7 ng·h/mL
- Cmax ([2]; 2 mg, MAD Day 14, 2 mg, fed, mean, read-out: Cmax): 0.95 ng/mL
- Tmax ([2]; 2 mg, MAD Day 14, 2 mg, fed, median): 4 h
- half-life ([2]; 2 mg, MAD Day 14, 2 mg, fed, median, read-out: t1/2 (converted)): 85.8 min
- AUC ([2]; 6 mg, MAD Day 14, 6 mg (fasted), mean): 19 ng·h/mL
- Cmax ([2]; 6 mg, MAD Day 14, 6 mg (fasted), mean, read-out: Cmax): 6.37 ng/mL
- Tmax ([2]; 6 mg, MAD Day 14, 6 mg (fasted), median): 2 h
- half-life ([2]; 6 mg, MAD Day 14, 6 mg (fasted), median, read-out: t1/2 (converted)): 87.6 min
- AUC ([2]; 6 mg, MAD Day 14, 6 mg, fed, mean): 6.05 ng·h/mL
- Cmax ([2]; 6 mg, MAD Day 14, 6 mg, fed, mean, read-out: Cmax): 2.16 ng/mL
- Tmax ([2]; 6 mg, MAD Day 14, 6 mg, fed, median): 3.5 h
- half-life ([2]; 6 mg, MAD Day 14, 6 mg, fed, median, read-out: t1/2 (converted)): 90.6 min
- AUC ([2]; 12 mg, MAD Day 14, 12 mg, fed, mean): 14.6 ng·h/mL
- Cmax ([2]; 12 mg, MAD Day 14, 12 mg, fed, mean, read-out: Cmax): 4.85 ng/mL
- Tmax ([2]; 12 mg, MAD Day 14, 12 mg, fed, median): 3.5 h
- half-life ([2]; 12 mg, MAD Day 14, 12 mg, fed, median, read-out: t1/2 (converted)): 104 min
- half-life ([2]; MAD, read-out: steady-state t1/2): 84 to 156 min
- Tmax ([2]; Phase 1 summary (SAD and MAD)): 2 to 4 h
- Cmax ([2]; Phase 1 summary (SAD and MAD), read-out: maximal plasma concentrations (Cmax)): < 7 ng/mL
- steady-state t1/2 ([2]; MAD): 1.5 to 2.5 h
- AUC and Cmax lower on Day 14 vs Day 1 ([2]; MAD, fed dosing): 25-50%
- dose proportionality of AUC and Cmax ([2]; MAD, fed dosing): increased less than dose proportionally
- peripheral RCT: expression of LXR target genes in PBMCs incl. ABCA1/ABCG1 (ABCA1/ABCG1 in PBMCs): does not impact; also recorded: did not impact
- expression of Hmgcr and Cyp7a1 in the liver and Abca1, Abcg5, Abcg8 in the intestine (DIO mice; DIO mice): dose-dependently reduced
- expression of cholesterol efflux transporters Abca1 and Abcg1 in the buffy coat (DIO mice; DIO mice): did not alter
- plasma TG levels (DIO mice; DIO mice): reduced
- liver expression of DNL genes (Srebp1c, Fasn, Acaca, Scd1) (DIO mice; DIO mice, 0.3 and 1 mg/kg once daily oral, three weeks): dose-dependently reduced
- maximal reduction of liver TG versus vehicle (DIO mice; DIO mice, p≤0.001): 65%
- reduction of plasma total cholesterol (TC) at end of treatment compared with vehicle (DIO mice; DIO mice, p≤0.05): 49%
- intestinal Srebp1c expression (DIO mice; DIO mouse, ileum): dose-dependently reduced
- liver TC (DIO mice; dysmetabolic rodent models (FIG. 5B), particularly higher dose groups): statistically significant increase
- liver biochemistry tests, plasma ALT or AST, compared with vehicle (DIO mice; dysmetabolic rodent models (FIG. 5C-D)): not associated with substantial elevations
